# Measurements from paper PMC9403976, “Elucidating the path to Plasmodium prolyl-tRNA synthetase inhibitors that overcome halofuginone resistance” (Nature Communications, 2022).
# Values joined by “and” are separate entries in the source; they are usually repeats but may differ in a detail not shown here. Equal entries are not always repeated. Where two headings read alike, the source gives them in different places.
# Tests used:
# HsProRS = HsProRS (Homo sapiens, UniProt P07814); assay: TR-FRET ligand displacement assay with tracer MAT379 (CoraFluor-1-Halo and anti-His6 antibody formats); format: binding; design: made in house; host or cells: E. coli SoluBL-21; details: for TR-FRET dose-response, normalized signal (SI Fig 11): individual replicates
# Chain of HsProRS (P07814 996-1512): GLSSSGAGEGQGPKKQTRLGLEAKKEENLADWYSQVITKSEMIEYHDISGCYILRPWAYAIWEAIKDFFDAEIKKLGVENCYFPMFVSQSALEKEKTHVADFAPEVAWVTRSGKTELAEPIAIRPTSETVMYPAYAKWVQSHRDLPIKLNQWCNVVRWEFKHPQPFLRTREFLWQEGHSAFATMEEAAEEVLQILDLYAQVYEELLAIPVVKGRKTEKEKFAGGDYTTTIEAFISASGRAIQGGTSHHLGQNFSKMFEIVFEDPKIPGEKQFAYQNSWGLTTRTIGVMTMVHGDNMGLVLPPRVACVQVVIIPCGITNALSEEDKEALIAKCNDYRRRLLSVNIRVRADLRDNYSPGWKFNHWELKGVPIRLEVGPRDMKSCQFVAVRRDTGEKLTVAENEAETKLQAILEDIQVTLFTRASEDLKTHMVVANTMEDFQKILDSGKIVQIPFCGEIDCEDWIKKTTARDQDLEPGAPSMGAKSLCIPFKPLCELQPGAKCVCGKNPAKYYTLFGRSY
# PfcProRS = target: T1, PfcProRS (Plasmodium falciparum, UniProt Q8I5R7); format: binding; details: single replicates
# T1 construct: made in house; host or cells: E. coli SoluBL-21
# T1 sequence (Q8I5R7 249-746): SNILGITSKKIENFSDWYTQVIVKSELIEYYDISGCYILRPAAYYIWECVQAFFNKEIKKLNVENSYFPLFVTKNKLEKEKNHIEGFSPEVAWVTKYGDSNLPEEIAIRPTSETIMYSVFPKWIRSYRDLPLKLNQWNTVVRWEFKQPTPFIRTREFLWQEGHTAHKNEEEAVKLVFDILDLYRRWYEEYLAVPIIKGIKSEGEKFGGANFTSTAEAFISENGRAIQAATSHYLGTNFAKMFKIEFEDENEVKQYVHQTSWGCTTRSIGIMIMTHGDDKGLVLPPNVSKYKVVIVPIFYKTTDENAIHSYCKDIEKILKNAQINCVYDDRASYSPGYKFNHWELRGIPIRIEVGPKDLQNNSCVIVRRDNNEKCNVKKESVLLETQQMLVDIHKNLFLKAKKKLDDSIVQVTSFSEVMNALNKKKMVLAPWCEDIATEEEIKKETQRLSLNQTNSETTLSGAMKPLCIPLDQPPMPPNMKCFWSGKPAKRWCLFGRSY
compound,measurement,setting,value
NCC1CCN(C(=O)Nc2nccnc2C(=O)NC2Cc3ccccc3C2)CC1 [compound 10],IC50,HsProRS,> 10000 nM
same,Kd,"HsProRS; HsProRS (KD [nM]) + 100 μM proline mean, + 100 μM proline",1360 nM
same,"normalized TR-FRET ligand displacement signal, dose-response replicates (SI Fig 6)",HsProRS; Log[inhibitor] (M) -5.000,7.52E-01 and 7.79E-01 and 7.62E-01
same,"TR-FRET dose-response, normalized signal (SI Fig 11)",HsProRS; Log[inhibitor] (M) -5.000,6.05E-01 and 5.95E-01 and 6.36E-01
same,"normalized TR-FRET ligand displacement signal, dose-response replicates (SI Fig 6)",HsProRS; Log[inhibitor] (M) -5.301,8.20E-01 and 8.88E-01 and 8.92E-01
same,"TR-FRET dose-response, normalized signal (SI Fig 11)",HsProRS; Log[inhibitor] (M) -5.301,6.96E-01 and 7.22E-01 and 7.09E-01
same,"normalized TR-FRET ligand displacement signal, dose-response replicates (SI Fig 6)",HsProRS; Log[inhibitor] (M) -5.601,9.12E-01 (2×) and 9.52E-01
same,"TR-FRET dose-response, normalized signal (SI Fig 11)",HsProRS; Log[inhibitor] (M) -5.601,8.44E-01 and 7.94E-01 and 8.38E-01
same,"normalized TR-FRET ligand displacement signal, dose-response replicates (SI Fig 6)",HsProRS; Log[inhibitor] (M) -5.904,1.12E+00 and 9.84E-01 and 8.91E-01
same,"TR-FRET dose-response, normalized signal (SI Fig 11)",HsProRS; Log[inhibitor] (M) -5.904,8.92E-01 and 8.20E-01 and 8.24E-01
same,"normalized TR-FRET ligand displacement signal, dose-response replicates (SI Fig 6)",HsProRS; Log[inhibitor] (M) -6.208,9.97E-01 and 8.76E-01 and 9.90E-01
same,"TR-FRET dose-response, normalized signal (SI Fig 11)",HsProRS; Log[inhibitor] (M) -6.208,8.69E-01 and 8.29E-01 and 9.13E-01
same,"normalized TR-FRET ligand displacement signal, dose-response replicates (SI Fig 6)",HsProRS; Log[inhibitor] (M) -6.509,9.61E-01 and 1.04E+00 and 9.10E-01
same,"TR-FRET dose-response, normalized signal (SI Fig 11)",HsProRS; Log[inhibitor] (M) -6.509,9.27E-01 and 8.13E-01 and 9.47E-01
same,"normalized TR-FRET ligand displacement signal, dose-response replicates (SI Fig 6)",HsProRS; Log[inhibitor] (M) -6.796,1.04E+00 and 1.06E+00 and 1.01E+00
same,"TR-FRET dose-response, normalized signal (SI Fig 11)",HsProRS; Log[inhibitor] (M) -6.796,9.41E-01 and 8.80E-01 and 8.81E-01
same,"normalized TR-FRET ligand displacement signal, dose-response replicates (SI Fig 6)",HsProRS; Log[inhibitor] (M) -7.108,1.05E+00 and 9.51E-01 and 1.07E+00
same,"TR-FRET dose-response, normalized signal (SI Fig 11)",HsProRS; Log[inhibitor] (M) -7.108,8.72E-01 and 9.00E-01 and 8.74E-01
same,"normalized TR-FRET ligand displacement signal, dose-response replicates (SI Fig 6)",HsProRS; Log[inhibitor] (M) -7.409,8.85E-01 and 9.14E-01 and 8.87E-01
same,"TR-FRET dose-response, normalized signal (SI Fig 11)",HsProRS; Log[inhibitor] (M) -7.409,8.90E-01 and 8.97E-01 and 8.75E-01
same,"normalized TR-FRET ligand displacement signal, dose-response replicates (SI Fig 6)",HsProRS; Log[inhibitor] (M) -7.710,9.64E-01 (2×) and 8.88E-01
same,"TR-FRET dose-response, normalized signal (SI Fig 11)",HsProRS; Log[inhibitor] (M) -7.710,8.83E-01 and 8.58E-01 and 9.38E-01
same,"normalized TR-FRET ligand displacement signal, dose-response replicates (SI Fig 6)",HsProRS; Log[inhibitor] (M) -8.000,9.97E-01 and 1.02E+00 and 9.70E-01
same,"TR-FRET dose-response, normalized signal (SI Fig 11)",HsProRS; Log[inhibitor] (M) -8.000,9.01E-01 and 9.27E-01 and 9.34E-01
same,"normalized TR-FRET ligand displacement signal, dose-response replicates (SI Fig 6)",HsProRS; Log[inhibitor] (M) -8.301,9.79E-01 and 9.25E-01 and 8.62E-01
same,"TR-FRET dose-response, normalized signal (SI Fig 11)",HsProRS; Log[inhibitor] (M) -8.301,8.32E-01 and 8.76E-01 and 8.86E-01
same,"normalized TR-FRET ligand displacement signal, dose-response replicates (SI Fig 6)",HsProRS; Log[inhibitor] (M) -8.602,1.04E+00 and 9.88E-01 and 8.85E-01
same,"TR-FRET dose-response, normalized signal (SI Fig 11)",HsProRS; Log[inhibitor] (M) -8.602,8.91E-01 and 9.03E-01 and 9.02E-01
same,"normalized TR-FRET ligand displacement signal, dose-response replicates (SI Fig 6)",HsProRS; Log[inhibitor] (M) -9.000,9.73E-01 and 8.88E-01 and 1.05E+00
same,"TR-FRET dose-response, normalized signal (SI Fig 11)",HsProRS; Log[inhibitor] (M) -9.000,9.24E-01 and 8.78E-01 and 8.94E-01
same,"normalized TR-FRET ligand displacement signal, dose-response replicates (SI Fig 6)",HsProRS; Log[inhibitor] (M) -9.301,9.62E-01 and 9.69E-01 and 9.04E-01
same,"TR-FRET dose-response, normalized signal (SI Fig 11)",HsProRS; Log[inhibitor] (M) -9.301,9.15E-01 and 8.48E-01 and 8.61E-01
same,HsProRS % signal at 10 μM,"HsProRS; no added proline/ATP (-), 10 μM",61.2%
same,"dose-response signal (normalized), SI Fig 8",PfcProRS; Log[inhibitor] (M) -5.000,6.00E-01 and 6.56E-01 and 6.73E-01
same,"dose-response signal (normalized), SI Fig 8",PfcProRS; Log[inhibitor] (M) -5.301,9.19E-01 and 8.61E-01 and 8.50E-01
same,"dose-response signal (normalized), SI Fig 8",PfcProRS; Log[inhibitor] (M) -5.601,9.17E-01 and 9.92E-01 and 9.34E-01
same,"dose-response signal (normalized), SI Fig 8",PfcProRS; Log[inhibitor] (M) -5.904,9.34E-01 and 1.02E+00 and 9.14E-01
same,"dose-response signal (normalized), SI Fig 8",PfcProRS; Log[inhibitor] (M) -6.208,1.16E+00 and 1.11E+00 and 8.47E-01
same,"dose-response signal (normalized), SI Fig 8",PfcProRS; Log[inhibitor] (M) -6.509,1.03E+00 and 1.08E+00 and 9.82E-01
same,"dose-response signal (normalized), SI Fig 8",PfcProRS; Log[inhibitor] (M) -6.796,9.55E-01 and 9.28E-01 and 9.85E-01
same,"dose-response signal (normalized), SI Fig 8",PfcProRS; Log[inhibitor] (M) -7.108,9.16E-01 and 1.02E+00 and 1.03E+00
same,"dose-response signal (normalized), SI Fig 8",PfcProRS; Log[inhibitor] (M) -7.409,1.06E+00 and 1.03E+00 and 1.09E+00
same,"dose-response signal (normalized), SI Fig 8",PfcProRS; Log[inhibitor] (M) -7.710,8.76E-01 and 1.01E+00 and 9.98E-01
same,"dose-response signal (normalized), SI Fig 8",PfcProRS; Log[inhibitor] (M) -8.000,1.02E+00 and 1.09E+00 and 1.14E+00
same,"dose-response signal (normalized), SI Fig 8",PfcProRS; Log[inhibitor] (M) -8.301,1.04E+00 (2×) and 9.07E-01
same,"dose-response signal (normalized), SI Fig 8",PfcProRS; Log[inhibitor] (M) -8.602,1.06E+00 and 9.87E-01 and 1.02E+00
same,"dose-response signal (normalized), SI Fig 8",PfcProRS; Log[inhibitor] (M) -9.000,9.95E-01 and 1.10E+00 and 1.11E+00
same,"dose-response signal (normalized), SI Fig 8",PfcProRS; Log[inhibitor] (M) -9.301,9.71E-01 and 8.41E-01 and 1.04E+00
